Consider 27 compounds from patent US6635786B2, “Symmetrically disubstituted aromatic compounds and pharmaceutical compositions for inhibiting poly (ADP-ribose) glycohydrolase, and methods for their use” (Guilford Pharmaceuticals, Inc., priority 2001, dated 2003).

Structures are written as SMILES.

In one data set the target is T1, human PARG (Homo sapiens, UniProt Q86W56).
T1 construct: human PARG from amino acid 378 to 976; GST (glutathione-S-transferase, pGEX-4T1) (N); made in house; host or cells: E. coli BL21
The experiment in a line: PARG enzymatic assay. The class given is biochemical. To be noted: recombinant GST-fused human PARG (aa 378-976); 3H-labeled poly-(ADP-ribose) substrate; 23° C., 10 min. On the procedure: The potency of PARG inhibition was determined in a PARG enzymatic assay. For each compound, various doses were used to inhibit the PARG reaction. A dose responsible curve was generated to determine the IC50 value and the concentration (in μM) required to achieve 50% inhibition of the reaction.
The PARG assay consisted of (a) preparation of 3H-labeled radioactive PARG as substrate, (b) purification of recombinant PARG, (c) incubation of the compound with the PARG reaction, (d) separation of the product by absorption to glass fiber filter and quantifying the radioactivity of ADP-ribose by scintillation counting.
3H-labeled poly-(ADP-ribose) was made by mixing labeled and unlabeled PAR. Labeled PAR was synthesized in a reaction of 50 mM Tris-HCl (pH 8.0), 4 mM MgCl2, 0.8 μg/mL activated DNA, 3 μM NAD, NEN 3H-NAD (0.1 mCi/mL), 0.8 μl/mL and 1.4 μl/mL Trevigen PARP. The reaction was incubated at room temperature for 60 min, then dialyzed to remove unincorporated 3H NAD using a MWCO 7000 dialysis cassette in 50 mM Phosphate buffer (pH 7.1) at 5° C. over night. Buffer was changed and dialysis continued for 2 h in the morning. The resulting 3H PAR gave 80,000 DPM/10 μL by scintillation counting.
Unlabeled PAR was synthesized in a reaction that consisted of 50 mM Tris-HCl (pH 8.0), 4 mM MgCl2, 0.8 μg/mL activated DNA, 150 μM NAD, and 1.9 μl/mL Trevigen PARP. The reaction was incubated at room temperature for 60 min, and dialyzed to remove unincorporated NAD in a MWCO 7000 cassette using 50 mM Phosphate buffer (pH 7.1) over night at […]. Buffer was changed and dialysis continued for 2 h in the morning. The OD260 of synthesized PAR is […].
The final PAR mix is made by combining 3H-PAR and PAR synthesized @ 150 μM NAD so that the OD260=0.2-0.3 and the DPM/10 μL=10,000 DPM (SA=0.45 Ci/mmole). EDTA was added to 1 mM.
A cDNA fragment encoding the carboxy terminal part of human PARG from amino acid 378 to 976 was amplified by polymerase chain reaction with human thymus cDNA (Clontech, Palo Alto, Calif.) as a template and a pair of primers with the sequences of 5′-[…]-3′ and 5′-[…]-3′. The primers contained the restriction enzyme sites EcoRI and XhoI. The PCR amplified PARG DNA fragment was digested with EcoRI and XhoI, and then ligated to the same sites in pGEX-4T1 plasmid (acquired from Pharmacia/Upjohn Co., Kalamazoo, Mich.) to create pGEX-PARG by using standard molecular biology procedure. The pGEX-PARG was transformed into E. coli strain BL21 for expressing the recombinant protein that has a glutathione-S-transferase at the amino terminus and fused in frame with PARG at the carboxy terminus. The recombinant protein was expressed and purified using glutathione-sephadex 4B beads according to the standard methodology.
A range of potential PARG inhibitors at final concentrations of 200.0 to 0.1 μM were tested, each point done in triplicate. The compounds were dissolved in DMSO resulting in a final DMSO concentration of 5.0%. The reaction was carried out in a volume of 0.1 mL. PARG enzyme was added to a concentration of 0.05 μL/mL to microtiter plates containing approximately 10 μM 3H-labeled poly-(ADP-ribose) in 50 mM Phosphate buffer (pH 7.1), 5 mM B-mercaptoethanol. The reaction was incubated at 23° C. for 10 min. and was stopped with the addition of TCA to a final concentration of 10%.
Enzyme activity was measured by the disappearance of substrate, [poly-(ADP-ribose) polymer], which was quantified as the loss of glass fiber filter adsorbed radioactivity. The reaction was harvested onto Millipore GFC96 well filter plates using the Packard Cell Harvestor. The plates were washed three times with 70% ethanol, air dried, and the radioactivity was measured by scintillation counting.

T1 sequence (Q86W56 378-976): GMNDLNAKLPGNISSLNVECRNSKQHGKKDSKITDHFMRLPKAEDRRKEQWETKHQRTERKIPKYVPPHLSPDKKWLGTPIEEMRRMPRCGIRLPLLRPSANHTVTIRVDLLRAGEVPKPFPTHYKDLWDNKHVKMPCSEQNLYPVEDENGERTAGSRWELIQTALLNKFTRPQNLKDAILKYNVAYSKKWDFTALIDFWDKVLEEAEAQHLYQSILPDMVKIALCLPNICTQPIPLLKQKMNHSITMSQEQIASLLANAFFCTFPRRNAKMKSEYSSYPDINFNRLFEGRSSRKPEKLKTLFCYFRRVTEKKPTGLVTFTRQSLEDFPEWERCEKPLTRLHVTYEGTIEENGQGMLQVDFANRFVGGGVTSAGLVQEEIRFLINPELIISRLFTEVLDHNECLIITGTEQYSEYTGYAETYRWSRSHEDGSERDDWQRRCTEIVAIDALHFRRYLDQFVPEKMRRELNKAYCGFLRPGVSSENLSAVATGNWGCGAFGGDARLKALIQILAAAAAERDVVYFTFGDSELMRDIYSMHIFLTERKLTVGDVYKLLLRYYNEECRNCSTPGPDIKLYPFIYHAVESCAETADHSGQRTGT

Turning to `O=C(CCN1CCN(c2cccc(C(F)(F)F)c2)CC1)c1ccc2oc3ccc(C(=O)CCN4CCN(c5cccc(C(F)(F)F)c5)CC4)cc3c(=O)c2c1` [Example 41, 2,7-Bis-{3-[4-(3-trifluoromethyl-phenyl)-piperazin-1-yl]-propionyl}-xanthen-9-one], the melting point – broadly, the temperature, or range, at which the solid turns liquid – is 166 to 167 °C. The half-maximal inhibitory concentration (IC50) – broadly, the concentration needed to halve the response being measured – on human PARG came to 17.5 µM. `O=C(NCCCc1ccccc1)c1ccc2c(c1)C(=O)c1cc(C(=O)NCCCc3ccccc3)ccc1-2` [Example 16]: the melting point fell in the range of 162 to 165 °C. Further, the IC50 on human PARG came out at 1.7 µM. The like results for `O=C(NCCc1ccccc1)c1ccc(C(=O)c2ccc(C(=O)NCCc3ccccc3)cc2)cc1` [Example 18, 4,4′-Bis(N-phenethyl)carbamoyl-benzophenone] were, in that order, 244 to 248 °C and 6 µM. The matching figures for `O=C(CCN1CCN(c2cccc(Cl)c2)CC1)c1ccc2c(c1)Cc1cc(C(=O)CCN3CCN(c4cccc(Cl)c4)CC3)ccc1O2` [Example 60]: 182 to 185 °C and 1.1 µM. Take `O=C(OCCCc1ccccc1)c1ccc2c(c1)C(Cl)(Cl)c1cc(C(=O)OCCCc3ccccc3)ccc1-2` [Example 2, 9,9-Dichloro-9H-fluorene-2,7-dicarboxylic acid bis-(3-phenyl-propyl) ester]: the melting point fell in the range of 91 to 92 °C. In addition, at human PARG, the half-maximal inhibitory concentration (IC50) is 11.3 µM.

Compound `O=C(NCCc1ccccc1)c1ccc2c(c1)C(=O)c1cc(C(=O)NCCc3ccccc3)ccc1-2` [Example 56, 9-Oxo-9H-fluorene-2,7-bis-(phenethyl-amide)] gave a melting point of 327 to 329 °C. The half-maximal inhibitory concentration (IC50) on human PARG came out at 22 µM. `O=C(CCN1CCN(c2cccc(C(F)(F)F)c2)CC1)c1ccc2c(c1)Cc1cc(C(=O)CCN3CCN(c4cccc(C(F)(F)F)c4)CC3)ccc1O2` [Example 40, 2,7-Bis-{3-[4-(3-trifluoromethyl-phenyl)-piperazin-1-yl]-propionyl}-xanthene] displayed a melting point of 155 to 157 °C. Further, the IC50 on human PARG worked out at 10.6 µM.

For `O=C(NCc1ccc(Cl)c(Cl)c1)c1ccc2c(c1)C(=O)c1cc(C(=O)NCc3ccc(Cl)c(Cl)c3)ccc1-2` [Example 57, 9-Oxo-9H-fluorene-2,7-bis-(3,4-dichloro-benzylamide)], the melting point was in the range of 265 to 267 °C. Moreover, the IC50 on human PARG is 15 µM. The like results for `O=C(c1cccc(C(=O)N2CCN(c3ccccc3)CC2)c1)c1cccc(C(=O)N2CCN(c3ccccc3)CC2)c1` [Example 22] were, in that order, 157 to 158 °C and 17.1 µM. The matching figures for `O=C(CCCl)c1ccc2c(c1)Cc1cc(C(=O)CCCl)ccc1O2` [Example 37, 2,7-Bis-(3-chloro-propionyl)-xanthene]: 179 to 181 °C and 17 µM. Turning to `O=C(CCN1CCN(c2ccc(F)cc2)CC1)c1ccc2c(c1)Cc1cc(C(=O)CCN3CCN(c4ccc(F)cc4)CC3)ccc1O2` [Example 59], the melting point was 207 to 209 °C. In addition, the IC50 at human PARG is 2.9 µM. The matching figures for `O=C(OCc1ccccc1)c1ccc2c(c1)C(Cl)(Cl)c1cc(C(=O)OCc3ccccc3)ccc1-2` [Example 1, 9,9-Dichloro-9H-fluorene-2,7-dicarboxylic acid bis-benzyl ester]: 159 to 162 °C and 13.5 µM. The matching figures for `O=C(CCN1CCN(c2ccccc2)CC1)c1ccc2oc3ccc(C(=O)CCN4CCN(c5ccccc5)CC4)cc3c(=O)c2c1` [Example 42, 2,7-Bis-[3-(4-phenyl-piperazin-1-yl)-propionyl]-xanthen-9-one]: 199 to 201 °C and 100 µM. In the case of `O=C(NCCc1cccs1)c1cccc2c1S(=O)(=O)c1c(cccc1C(=O)NCCc1cccs1)O2` [Example 50, 1,9-Bis{N-[2-(thiophen-2-yl)ethyl]carbamoyl}-10,10-dioxo-phenoxathiin], the IC50 at human PARG was determined as 11.5 µM. On the same count and under the same terms, the figure for `O=C(c1cccc2c1S(=O)(=O)c1c(cccc1C(=O)N1CCN(c3ccc(F)cc3)CC1)O2)N1CCN(c2ccc(F)cc2)CC1` [Example 43, 1,9-Bis{N-[4-(4-fluoro-phenyl)-piperazine-carbamoyl]}-10,10-dioxo-phenoxathiin] is 5.7 µM; for `O=C(NCCc1ccccc1)c1cccc(C(=O)c2cccc(C(=O)NCCc3ccccc3)c2)c1` [Example 21, 3,3′-Bis(N-phenethyl)carbamoyl-benzophenone] it is 65.6 µM; for `COc1ccccc1CCNC(=O)c1ccc2c(c1)-c1ccc(C(=O)NCCc3ccccc3OC)c3cccc-2c13` [Example 32, 3,9-Bis{N-[2-(2-methoxy-phenyl)]-ethyl}fluoranthenedicarboxamide] it is 21.1 µM.

Consider `O=C(c1cccc2c1S(=O)(=O)c1c(cccc1C(=O)N1CCN(c3ccncc3)CC1)O2)N1CCN(c2ccncc2)CC1` [Example 46, 1,9-Bis{N-[4-(pyridin-4-yl)-piperazine]carbamoyl}-10,10-dioxo-phenoxathiin], for which, on human PARG, the IC50 is 28.4 µM.

For the compound `O=C(NCCCc1ccccc1)c1ccc(C(=O)c2ccc(C(=O)NCCCc3ccccc3)cc2)cc1` [Example 20, 4,4′-Bis(N-phenpropyl)carbamoyl-benzophenone], the IC50 at human PARG was found to be 40.1 µM. For the compound `O=C(NCc1cccnc1)c1ccc2c(c1)-c1ccc(C(=O)NCc3cccnc3)c3cccc-2c13` [Example 26, 3,9-Bis[N-(pyridin-3-yl)methyl]fluoranthenedicarboxamide], at human PARG, the 50% inhibitory concentration (IC50) came out at 100 µM. The same measure, in the same setting: the figure for `O=C(OCc1ccc2ccccc2c1)c1ccc2c(c1)C(Cl)(Cl)c1cc(C(=O)OCc3ccc4ccccc4c3)ccc1-2` [Example 10, 9,9-Dichloro-9H-fluorene-2,7-dicarboxylic acid bis-(2-naphthalen-2-yl-methyl) ester] is 27.1 µM; for `O=C(NCCOc1ccccc1)c1ccc2c(c1)-c1ccc(C(=O)NCCOc3ccccc3)c3cccc-2c13` [Example 29, 3,9-Bis[N-(2-phenoxy)ethyl]fluoranthenedicarboxamide] it is 29 µM. On the same count and under the same terms, to `COC(=O)c1ccc2c(c1)C(Cl)(Cl)c1cc(C(=O)OC)ccc1-2` [Example 7, 9,9-Dichloro-9H-fluorene-2,7-dicarboxylic acid bis-methyl ester] belongs 45.6 µM. Still for that read-out and setting: the figure for `O=C(NCc1ccccc1)c1ccc(C(=O)c2ccc(C(=O)NCc3ccccc3)cc2)cc1` [Example 19, 4,4′-Bis(N-benzyl)carbamoyl-benzophenone] is 75 µM; for `O=C(OCCc1ccc2ccccc2c1)c1ccc2c(c1)C(Cl)(Cl)c1cc(C(=O)OCCc3ccc4ccccc4c3)ccc1-2` [Example 9, 9,9-Dichloro-9H-fluorene-2,7-dicarboxylic acid bis-(2-naphthalen-2-yl-ethyl) ester] it is 46.6 µM; for `O=C(NCc1ccccc1)c1ccc2c(c1)C(=O)c1cc(C(=O)NCc3ccccc3)ccc1-2` [Example 17, 2,7-Bis(N-benzylcarbamoyl)-9-Oxo-9H-fluorene] it is 21.8 µM.

With `COc1ccc(CNC(=O)c2ccc3c(c2)-c2ccc(C(=O)NCc4ccc(OC)c(OC)c4)c4cccc-3c24)cc1OC` [Example 28, 3,9-Bis[N-(3,4-dimethoxy-benzyl)]fluoranthenedicarboxamide], the 50% inhibitory concentration (IC50) on human PARG stood at 11.1 µM.
